# Laboratory results from patent publication US10869903B2, “Probiotic and prebiotic compositions, and methods of use thereof for treatment and prevention of graft versus host disease” (Evelo Biosciences, Inc., priority 2014, dated 2020).
# Legend:
# Lactobacillus johnsonii = assay type: cell-based
# [1] = Normal human volunteer study of D-xylose: serum and urine pharmacokinetics; assay type: in vivo, healthy, adult volunteers
# Source text: Blood and urine were collected at pre-specified pre- and post-ingestion time points to measure D-xylose levels and to characterize the systemic absorption profiles of D-xylose. Phoenix® WinNonLin®, Version 6.2.1, was used for PK analyses. Serum D-xylose concentrations were summarized by cohort using nominal sample times according to actual amount received using summary statistics (n, coefficient of variation [CV], mean, standard deviation [SD], median, minimum, and maximum). Evidence for the occurrence of steady-state was assessed graphically by comparing the time course of either trough or 2-hour post-ingestion serum concentrations of D-xylose as different levels of D-xylose. Accumulation was assessed by comparing the 2-hour post-first-ingestion serum levels with those observed at Week 2 (Day 15) and Week 4 (Day 28). […] Urine PK parameters for D-xylose levels included Ae(0-t) (cumulative amount of sweetener recovered in urine) and percent sweetener amount excreted over a 5-hour period.
# blautia = assay: Sugar fermentation in media lacking glucose (pH and optical density); assay type: cell-based
# [2] = human, in vivo
# Description: D-xylose is a carbon source generally preferred by anaerobic bacteria. […] A parallel, double-blind, 5 cohort escalation food safety study was conducted to examine D-xylose in normal human volunteers. The study was a double-blind, single-center, parallel group study designed to evaluate the tolerability and potential microbiome changes induced by ingestion of D-xylose at 5 different amounts in healthy, adult volunteers enrolled at 1 study center in the United States (US).
# Subjects were screened for eligibility within 21 days prior to the first planned ingestion of study sweetener on Day 1 (Baseline). […]
# Subjects returned to the study center weekly on Days 8, 15, 22, and 28 for ingestion, tolerability, and compliance evaluations. Safety was evaluated on a continual basis through adverse events (AE) monitoring, clinical laboratory measurements, vital sign monitoring, physical examinations, electrocardiograms (ECGs), telephone follow-up, and electronic subject ingestion diaries. Stool was collected pre-ingestion and at pre-specified time points, and post-ingestion samples were evaluated for changes in the gut microbiome compared with Baseline for all subjects. […]
# Safety was evaluated on a continual basis through AE monitoring, clinical laboratory measurements, vital sign monitoring, physical examinations, ECGs, telephone follow-up, and electronic subject ingestion diaries. […]
# [3] = system: anaerobic commensal bacteria; assay: Carbon source usage profiling on Biolog PM01 and PM02A plates (OD 750 nm); assay type: cell-based
# GVHD = system: GVHD; set-up: species or system mice; conditions: mouse, in vivo
# [4] = Normal human volunteer study of D-xylose: CRP, serum cytokines, T-cell markers; assay type: in vivo, healthy, adult volunteers
# Source text: Blood was collected at pre-specified pre- and post-ingestion time points to evaluate C-reactive protein (CRP), serum cytokines (tumor necrosis factor alpha [TNF-α], interleukin [IL]-2, IL-6, interferon gamma [IFN-γ], and IL-10), and T-cell markers CD3, CD4, CD8, CD25, and FOXP3. Plasma was also stored and may be tested for biomarkers and/or metabolic markers for up to 7 years.
# Summary statistics (n, mean, standard deviation, median, minimum, and maximum) were presented for serum concentrations of CRP, flow cytometry T-cell markers (CD3, CD4, CD8, CD25, and FOXP3), and cytokines (TNF-α, IL-2, IL-6, IFN-γ, and IL-10) as per their nominal time points.
# [5] = system: Tregs in the large intestine; conditions: mouse, in vivo; cited from earlier work
# [6] = system: microbiome of the gut and the vagina; set-up: species or system C57Bl/6 female mice; conditions: mouse, in vivo
# Source text: The trillions of organisms forming the microbiome function as an organ system interconnected throughout the body. The possibility that modification of the microbiome in a given physical location may influence the microbiome at other sites in the body (distal augmentation) was investigated. Seven week old C57Bl/6 female mice were acclimatized for 7 days prior to the start of the study by daily handling and shuffling between cages. All mice were housed at three mice per cage in individually vented cages (Thoren, Hazleton, Pa.). At day 0, baseline fresh fecal pellets, and vaginal lavages with 100 μL of sterile double-distilled water were collected and immediately frozen at −80° C. for microbiome analysis. […] Water alone is not expected to influence the microbiome and acted as a negative control. […] The impact of oral vancomycin is therefore expected to be limited to the gastrointestinal tract such that microbiome changes elsewhere in the body (e.g. vagina) would be attributable to distal augmentation. […]
# Isolation and sequencing of microbial DNA from the stool and vaginal samples was performed by DNA Genotek (Ottawa, ON, Canada). The V3-V4 region of the 16S ribosomal subunit was amplified with custom PCR primers and sequenced on an Illumina MiSeq to a minimum acceptable read depth of 25,000 sequences per sample. […]
# [7] = system: human peripheral blood mononuclear cells (PBMCs); assay: Cytokine release by human PBMCs incubated with commensal bacteria, alone or combined with E. faecalis (Luminex); assay type: cell-based; conditions: for anti-inflammatory profile for a Th-1-driven condition such as GVHD: overall assessment
# Description: An in vitro system was developed to efficiently test the inflammatory and immunomodulatory properties of different human commensal bacteria on human peripheral blood mononuclear cells (PBMCs). Experiments were carried out with 21 bacterial candidates to profile their anti-inflammatory properties against human PBMCs. The innate properties of bacteria alone on human PBMCs were tested as well as their ability to counteract the pro-inflammatory activity of Enterococcus feacalis.
# Human PBMCs were isolated from fresh blood by density-gradient centrifugation using Ficoll (1-4). […] The results are presented in FIGS. 2-5 for all time points. […] The 24 h results are shown as a composite in FIG. 6 and with statistical analysis on individual cytokines in FIGS. 7-10. The results represent the properties of each bacterial species against human PBMCs and their ability to counteract inflammatory stimulation with E. faecalis in vitro.
# tumors = conditions: oral administration; anti-PD-1 and anti-CTLA-4 antibody therapies; cited from earlier work
molecule,measurement,setting,value
O=C[C@H](O)[C@@H](O)[C@H](O)CO [D-xylose],augmentation (fermentation) of lactobacillus,Lactobacillus johnsonii,not lactobacillus
same,basal levels of serum endotoxin,"serum endotoxin; mouse, in vivo",reduced these basal levels over time
same,effect on increase in serum endotoxin level caused by cipro,"serum endotoxin; mouse, in vivo",appeared to counteract the increase
same,effect on increase in serum endotoxin level caused by enro,"serum endotoxin; mouse, in vivo",but not enro
same,ingested amount recovered in urine within 5 hours post-ingestion,"[1]; 1 g TID cohort, Days 1, 15 and 28",approximately 40%
same,serum D-xylose concentrations versus ingestion amount,[1]; 1 to 15 g TID,increased linearly with increasing ingestion amounts
same,accumulation ratio of serum D-xylose,"[1]; Day 15, 15 mg TID cohort, variability high",approximately 1.9 fold
same,accumulation ratio of serum D-xylose,"[1]; Day 28, 15 g TID",1.68
same,augmentation (fermentation) of blautia,blautia,specifically augments blautia
same,"SAEs, severe AEs, subject deaths",[2],"No SAEs, severe AEs, or subject deaths"
same,tolerability,[2],well tolerated
same,use as a carbon source by bacterial strains,[3],used as a carbon source by several bacterial strains
same,Blautia level in the intestinal flora,GVHD,expansion of Blautia in the intestinal flora
same,GVHD related survival,GVHD,improved survival
same,levels of serum interferon gamma over time,[4]; 2 g and 15 g D-xylose cohorts,trend for reduced levels
same,subjects with normal serum CRP at Baseline and at least 1 post-ingestion CRP value >2.9 mg/L,[4]; all cohorts of the sweetener,8.3%
CC(=O)O [acetate],numbers of Tregs in the large intestine,[5],restored normal numbers of Tregs
"CCN1CCN(c2cc3c(cc2F)c(=O)c(C(=O)O)cn3C2CC2)CC1 [enro, enrofloxacin, reference compound]",serum endotoxin levels after antibiotic,"serum endotoxin; 0.25 g/L in drinking water day −7 to day −2, measured 2 days after a 5 day course (day 0)",led to an increase in serum endotoxin levels
CCC(=O)O [propionate],numbers of Tregs in the large intestine,[5],restored normal numbers of Tregs
C[C@H](O)[C@H](O)[C@@H](O)[C@@H](O)C=O [rhamnose],augmentation (fermentation) of lactobacillus,Lactobacillus johnsonii,not lactobacillus
same,augmentation (fermentation) of blautia,blautia,specifically augments blautia
CN[C@H](CC(C)C)C(=O)N[C@H]1C(=O)N[C@@H](CC(N)=O)C(=O)N[C@H]2C(=O)N[C@H]3C(=O)N[C@H](C(=O)N[C@H](C(=O)O)c4cc(O)cc(O)c4-c4cc3ccc4O)[C@H](O)c3ccc(c(Cl)c3)Oc3cc2cc(c3O[C@@H]2O[C@H](CO)[C@@H](O)[C@H](O)[C@H]2O[C@H]2C[C@](C)(N)[C@H](O)[C@H](C)O2)Oc2ccc(cc2Cl)[C@H]1O [vancomycin],"impact on the microbiome of the gut (PCA at family level, fecal samples)",[6],strong impact on the microbiome of the gut
same,day 0 to day 6 pattern in vaginal samples (PCA),[6]; po,showed an overall difference
B. luti [EPV3],intrinsic inflammatory activity (induction of pro-inflammatory cytokines) compared to EPV 8,"[7]; bacterium alone, 24 h",relatively low intrinsic inflammatory activity
same,"reduction of induction of pro-inflammatory cytokines by EPV 8, including IL-6, MCP-1, IL-12p70, IFNγ","[7]; combination with EPV 8, 24 h",able to reduce
same,anti-inflammatory profile for a Th-1-driven condition such as GVHD,[7],significantly desirable anti-inflammatory profile
B. wexlerae [EPV5],anti-inflammatory profile for a Th-1-driven condition such as GVHD,[7],suboptimal anti-inflammatory profile
Bacteroides,responsiveness to checkpoint inhibitor therapy in cancer,tumors,increases the responsiveness
Bifidobacterium,responsiveness to checkpoint inhibitor therapy in cancer,tumors,increases the responsiveness
Lactobacillus,responsiveness to checkpoint inhibitor therapy in cancer,tumors,not
